Data from PMC2678990, “Stilbene glycosides are natural product inhibitors of FGF-2-induced angiogenesis” (BMC Cell Biology, 2009).

Legend:
BAEC [1] = assay: FGF-2-induced proliferation; type: cell-based, bovine; settings: Bos taurus, FGF-2 25 ng/ml, 72 h, NS = inhibition less than 50%
Procedure: (§1) Cells were seeded in triplicate at a concentration of 6.0 × 10^5/ml, in 2 ml of complete medium in 6-well plates. […] Growth factors, FGF-2 (25 ng/ml), EGF (75 ng/ml) and VEGF (10 ng/ml) and test compounds at different concentration were added and cells incubated for a further 72 h. Control wells were treated with 5 μl DMSO. Concentration ranges of test compounds and pre-incubation times were based on pilot studies. After 72 h, cells were washed in PBS, detached in 0.05%w/v trypsin in PBS, and counted on a Coulter counter (Coulter Electronics, Hialeah, FL) set to a threshold of 30 μm. Experiments were performed in triplicate and repeated at least twice.

BAEC [2] = assay: VEGF-induced proliferation; type: cell-based, bovine; settings: 72 h, NS = inhibition less than 50%
Procedure: as §1

HDMEC [3] = assay: VEGF-induced proliferation; type: cell-based, human; settings: 72 h, NS = inhibition less than 50%
Procedure: as §1

FGFR-2 (Homo sapiens) = tested on: T1, FGFR-2 (Homo sapiens); assay: ELISA binding assay of FGF-2 to soluble receptor; settings: added together with FGF-2, no pre-incubation
T1 construct: coated overnight with 2 μg/ml of the soluble receptors (FGFR-1 or -2 and VEGFR-1 or -2); purchased Santa Cruz Biotechnology (receptor); R&D Systems (FGF-2)
Procedure: (§2) Figure 8 The effect of increasing concentrations of compound 1 on FGF-2 binding to FGFR-1 and -2. The soluble receptor was coated onto the wells of a 96-well plate and blocked with 1% BSA. […] After 2 h the plate was washed and incubated with antibodies to the growth factor, then peroxidase-conjugated IgG for 45 min. Peroxidase substrate was added and the absorbance read at 405 nm (se below for detail).
(§3) Competition between growth factors, their cell surface receptors and test compounds was assessed in an ELISA assay as described by. A 96-well plate was coated overnight with 2 μg/ml of the soluble receptors (FGFR-1 or -2 and VEGFR-1 or -2) and blocked with 1% BSA in PBS containing 0.05% Tween-20. […] The plate was washed (× 3 with PBS-Tween-20) and incubated with anti-FGF-2 IgG (1:500 in PBS-Tween-20) or anti-VEGF IgG (!:250 in PBS-Tween-20) for 45 min, washed and incubated with horseradish peroxidase conjugated goat anti-IgG (Santa Cruz, 1:1000) for a further 45 min. After washing (× 3), ABTS peroxidase substrate was added and the absorbance read at 405 nm. IC50 values were calculated from the data using the EZ-Fit enzyme kinetic software (Perella Scientific Inc., Amherst, USA).

FGFR-1 (Homo sapiens) = tested on: T2, FGFR-1 (Homo sapiens); assay: ELISA binding assay of FGF-2 to soluble receptor; settings: added together with FGF-2, no pre-incubation
T2 construct: coated overnight with 2 μg/ml of the soluble receptors (FGFR-1 or -2 and VEGFR-1 or -2); purchased Santa Cruz Biotechnology (receptor); R&D Systems (FGF-2)
Procedure: as §2, §3

BAEC [4] = assay: FGF-2-induced tube formation in Matrigel; type: cell-based, bovine; settings: Matrigel; for IC50: 24 h, FGF-2 25 ng/ml
Procedure: Cells (1.0 × 10^6/ml) were mixed with an equal volume of Matrigel (Becton -Dickinson, Oxford, UK; prepared according to the supplier's instructions) at 4°C. Aliquots (80 μl) were added to the wells of a 48-well plate and allowed to polymerise (1 h) then 500 μl of 15% FCS containing FGF-2 (25 ng/ml; or other growth factors), with or without test compounds was added. The cells were incubated for 24 h at 37°C then fixed in 4% paraformaldehyde (5 min), washed in cold ethanol and the plate air dried. Cells were stained with Geimsa (30 s), air dried and photographed. Ten random fields were selected and the number of closed tubes counted.

[5] = tested on: bovine aortic endothelial cells (BAEC); assay: Proliferation without growth factors (15% FBS); type: cell-based
Procedure: as §1, with “Growth factors, FGF-2 (25 ng/ml), EGF (75 ng/ml) and VEGF (10 ng/ml) and test compounds at different concentration were added and cells incubated for a further 72 h.” left out

[6] = tested on: human dermal microvascular endothelial cells (HDMEC); assay: Proliferation without growth factors (15% FBS); type: cell-based
Procedure: as §1, with “Growth factors, FGF-2 (25 ng/ml), EGF (75 ng/ml) and VEGF (10 ng/ml) and test compounds at different concentration were added and cells incubated for a further 72 h.” left out

HDMEC [7] = assay: EGF-induced proliferation; type: cell-based, human; settings: EGF 75 ng/ml, 72 h, NS = inhibition less than 50%
Procedure: as §1

BAEC [8] = assay: FGF-2-induced migration in wound healing model; type: cell-based, bovine; settings: Bos taurus, FGF-2 25 ng/ml, 18 h
Procedure: Cells (6 × 10^4/ml) were added to a Thermanox cover slip in a 24-well plate in complete medium and incubated for 24–48 h. When confluent, the medium was replaced with DMEM containing 0.1% FCS and incubated for a further 48 h. Cover slips were washed (PBS, × 3), wounded with a sterile razor to produce a straight edged cut and washed in PBS to remove dislodged cells. Cover slips were added to a fresh 24-well plate in 0.1% FCS and incubated with FGF-2 (or other growth factors) and a range of concentrations of test compounds for 18 h. Under these conditions, there was negligible proliferation but measurable migration. Slides were fixed in ethanol (100%), stained with methylene blue and photographed. For each slide, 10 fields of view (2 mm × 1.45 mm) were counted at random. Each experiment was performed in triplicate and at least twice.

HDMEC [9] = assay: FGF-2-induced proliferation; type: cell-based; settings: Homo sapiens, FGF-2 25 ng/ml, 72 h
Procedure: as §1

BAEC [10] = assay: EGF-induced proliferation; type: cell-based, bovine; settings: EGF 75 ng/ml, 72 h, NS = inhibition less than 50%
Procedure: as §1

HDMEC [11] = assay: FGF-2-induced chemotaxis, Boyden chamber assay; type: cell-based; settings: Homo sapiens, 6 h, FGF-2 25 ng/ml
Procedure: The effect of compounds 1 and 2 on cell migration was examined in vitro using a modified Boyden chamber system with 8.0 μm pore polycarbonate filter inserts (TSL, UK). The filter was coated overnight with 0.1%w/v gelatine, and air-dried. Cells (1 × 10^5) were placed in the upper part of the filter and test compounds at different concentrations with and without growth factors were added to the lower part in SPM. Cells were incubated at 37°C for 6 h and the filter removed and the upper side containing non migrated cells wiped and rinsed. The filters were fixed (4% paraformaldehyde), and stained (Geimsa) and cell migration in duplicate wells was determined by counting cell numbers on the lower surface. Experiments were performed in triplicate and at least two times.

T1 sequence (P09038 143-288): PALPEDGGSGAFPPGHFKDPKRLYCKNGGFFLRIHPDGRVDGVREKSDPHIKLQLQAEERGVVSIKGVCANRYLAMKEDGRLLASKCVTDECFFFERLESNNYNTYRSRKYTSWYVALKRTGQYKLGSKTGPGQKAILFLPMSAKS
T2 sequence (P09038 143-288): as above

With `COc1cc(C=Cc2ccc(O)cc2)cc(OC2OC(COC3OC(C)C(O)C(O)C3O)C(O)C(O)C2OC2OC(C)C(O)C(O)C2O)c1` (stereo not drawn) [Compound 1] the IC50 (BAEC [1]) was 48.9 ± 0.4 µM, the “VEGF-induced proliferation, IC50” value (BAEC [2]) was “no significant inhibitory effect” and the IC50 (BAEC [2]; Bos taurus) was greater than 71.5 µM. For the same compound, the “VEGF-induced proliferation, IC50” value (HDMEC [3]) was “no significant inhibitory effect”, the IC50 (HDMEC [3]; Homo sapiens) was greater than 71.5 µM and the “Effect on FGF-2 binding to FGFR-2 when added with FGF-2” value (FGFR-2 (Homo sapiens)) was “no significant inhibitory effect”. The “Effect on FGF-2 binding to FGFR-1 when added with FGF-2” value (FGFR-1 (Homo sapiens)) was “no significant inhibitory effect”, the IC50 (BAEC [4]; Bos taurus) was 11.1 ± 0.28 µM and the IC50 (BAEC [4]) was 18.2 ± 0.65 µM. For the same compound, the “Effect on tube formation in the absence of FGF-2” value (BAEC [4]; without FGF-2) was “no inhibitory effect”, the “Effect on growth in the absence of growth factors” value ([5]; 1.4–71.5 μM) was “no significant effect” and the IC50 ([5]; Bos taurus, NS = overall inhibition less than 50%) was greater than 71.5 µM. The “Effect on growth in the absence of growth factors” value ([6]; 1.4–71.5 μM) was “no significant effect”, the IC50 ([6]; Homo sapiens, Endothelial cell, NS = overall inhibition less than 50%) was greater than 71.5 µM and the “EGF-induced proliferation, IC50” value (HDMEC [7]) was “no significant inhibitory effect”. It also gave an IC50 (HDMEC [7]; Homo sapiens) greater than 71.5 µM, an IC50 (BAEC [8]) of 41.8 ± 0.95 µM and an IC50 (HDMEC [9]) of 42 ± 0.93 µM. For the same compound, the IC50 (BAEC [10]; Bos taurus) was greater than 71.5 µM, the “EGF-induced proliferation, IC50” value (BAEC [10]) was “no significant inhibitory effect” and the IC50 (HDMEC [11]) was 21.5 ± 0.6 µM.
